Entries after “also recorded” stand apart in the source; their conditions may differ.
Tests used:
Type in all cases: cell-based, rat
G6pc mRNA = experiment: Relative G6pc mRNA expression in hepatocytes (real-time RT-PCR); conditions: for G6pc mRNA relative expression: 5 or 10 mM DG with 5 mM glucose (FIG. 6C); for relative expression of G6pc mRNA: 4 hours
Description: (§1) Hepatocytes were isolated from male Wistar rats (body wt 200-300 g) (Envigo, Bicester, UK). Procedures conformed to Home Office Regulations. The hepatocytes were suspended in Minimum Essential Medium (MEM) 21430 (Life Technologies, GIBCO BRL, Grand Island, N.Y.) with 5% (v/v) calf serum (Life Technologies, GIBCO BRL, Grand Island, N.Y.) and seeded on gelatin-coated plates. After cell attachment (˜4 hours) the medium was replaced by serum-free medium containing 5 mM glucose, 10 nM dexamethasone, 1 nM insulin and experiments were started after ˜20 hours culture by challenge with media containing 5 mM glucose, 15 mM glucose or 25 mM glucose and other additions as indicated.
(§2) Incubations for mRNA analysis and fructose 2,6-bisphosphate were for 4 hrs in MEM with 5, 15, or 25 mM glucose with or without 10 nM insulin and with or without 2 mM fructose. In samples including GKA, 10 μM GKA RO 28-1675 was added.
(§3) Incubations with 2-deoxyglucose (DG) where carried out as described previously but with 5 or 10 mM DG with 5 mM glucose (5G) and with or without 2 μM S4048.
(§4) RNA was extracted using TRIzol (Invitrogen) and cDNA was synthesized from 1 μg of RNA with MMLV (Promega). Real-time RT-PCR was performed in a total volume of 10 μl containing 50 ng of reverse transcribed RNA and 5 ng of forward and reverse primers using a Sybr-Green protocol (Promega) in a Roche Capillary Light Cycler. Relative mRNA levels (vs control) were calculated by the delta cycle threshold method.

hepatocytes [1] = experiment: Cell G6P / hexose 6-phosphate (H6P) determination in hepatocytes; conditions: for H6P concentration / glucose-6-phosphate concentration: hepatocytes; for H6P concentration: 5 or 10 mM DG with 5 mM glucose (FIG. 6B); for glucose-6-phosphate concentration: 2 hours, 10 nM insulin, 5, 15 or 25 mM glucose, 10 μM GKA vs glucose alone (FIG. 2B)
Description: as §1
Hepatocytes were incubated for 1 or 2 hours in MEM containing 10 nM insulin and 5, 15, or 25 mM glucose with or without 10μM GKA 3-cyclopentyl-2-(4-methanesulfonylphenyl)-N-thiazol-2-yl-propionamide (RO 28-1675) (Axon MedChem BV, Groningen) for determination of glucose phosphorylation (nmol/2 h per mg) and cell G6P (nmol/mg protein).
as §3
Medium containing the cultured hepatocytes was drained from cell culture plates and the plates were snap-frozen in liquid nitrogen and stored at −80° C. For H6P determination, cells were extracted in 2.5% sulphosalicylic acid for deproteinization (10,000g, 10 min) and the supernatants were then neutralized with KOH/KH^2PO4 (3 M/1 M) and metabolites assayed on the neutralized deproteinized extracts. For fructose 2,6-P2, cells were extracted in 0.15 M NaOH.
For G6P and H6P determination the assay procedure involved coupling of the dehydrogenation of G6P by glucose-6-phosphate dehydrogenase to the […] by the reduction of the molecule resazurin to resorufin by NADP measured by the […]. Standards of G6P (2 to 20 μM) were prepared in 2.5% sulphosalicylic acid and neutralized with KOH/KH2PO4 (3 M/1 M) as in samples for metabolite determination. Standards and samples (20 μl) were then assayed in a final reaction volume of 200 μI containing 50 mM triethanolamine (TEA, pH 7.6), 1.0 mM MgCl2, 100 μM NADP+, 10 μM resazurin, 0.1 U/ml G6PD, and 0.2 U/ml diaphorase. The mixtures were then incubated for 30 min at room temperature. Fluorescence at 590 nm was measured using excitation at 530 nm using a plate reader (M5E Molecular devices). Background fluorescence was corrected by subtracting the value of the no-G6P control from all sample readings and sample values were read off the linear standard curve determined from the G6P standards.
Metabolites are expressed as nmol/mg protein except for fructose 2,6-P2 which is expressed as pmol/mg of total cell protein determined by a Lowry assay.

Gck mRNA = experiment: Relative Gck mRNA expression in hepatocytes (real-time RT-PCR); conditions: for Gck mRNA relative expression: 5 or 10 mM DG with 5 mM glucose (FIG. 6D); for relative expression of Gck mRNA: 4 hours, listed as GKA
Description: as §1, §2, §3, §4

hepatocytes [2] = experiment: Fructose 2,6-bisphosphate determination in hepatocytes; conditions: 4 hours, GKA with 15 mM glucose vs 5 mM and 15 mM glucose alone, without or with 10 nM insulin (FIG. 3A), listed as GKA
Description: as §1, §2

hepatocytes [3] = experiment: Glucose phosphorylation in hepatocytes ([2-3H]glucose to 3H2O); conditions: 2 hours, 10 nM insulin, 5, 15 or 25 mM glucose, 10 μM GKA vs glucose alone (FIG. 2A)
Description: as §1

Pklr mRNA = experiment: Relative Pklr mRNA expression in hepatocytes (real-time RT-PCR); conditions: 4 hours, listed as GKA
Description: as §1, §2, §3
RNA was extracted using TRIzol (Invitrogen) and cDNA was synthesized from 1 μg of RNA with MMLV (Promega). […] Relative mRNA levels (vs control) were calculated by the delta cycle threshold method.

SMILES | G6pc mRNA relative expression (G6pc mRNA) | G6pc mRNA relative expression (G6pc mRNA; listed as 2DG) | H6P concentration (hepatocytes [1]) | H6P concentration (hepatocytes [1]; listed as 2DG) | Gck mRNA relative expression (Gck mRNA) | Gck mRNA relative expression (Gck mRNA; listed as 2DG) | relative expression of G6pc mRNA (G6pc mRNA; 10 nM insulin, 5, 15 or 25 mM glucose, -/+ 10 μM GKA (FIG. 4C), listed as GKA) | relative expression of G6pc mRNA (G6pc mRNA; GKA with 15 mM glucose vs 5 mM and 15 mM glucose alone (FIG. 3B)) | fructose 2,6-bisphosphate concentration (hepatocytes [2]) | fractional increase in G6P compared with fractional increase in metabolic flux (hepatocytes [1]; basal (5 mM) and moderate (15 mM) glucose, 10 μM GKA) | glucose-6-phosphate concentration (hepatocytes [1]) | glucose-6-phosphate concentration (hepatocytes [1]; listed as GKA) | glucose phosphorylation (hepatocytes [3]) | glucose phosphorylation (hepatocytes [3]; listed as GKA) | relative expression of Gck mRNA (Gck mRNA; 10 nM insulin, 5, 15 or 25 mM glucose, -/+ 10 μM GKA (FIG. 4A)) | relative expression of Gck mRNA (Gck mRNA; GKA with 15 mM glucose vs 5 mM and 15 mM glucose alone (FIG. 3D)) | relative expression of Pklr mRNA (Pklr mRNA; 10 nM insulin, 5, 15 or 25 mM glucose, -/+ 10 μM GKA (FIG. 4B)) | relative expression of Pklr mRNA (Pklr mRNA; GKA with 15 mM glucose vs 5 mM and 15 mM glucose alone (FIG. 3C))
O=CC[C@@H](O)[C@H](O)[C@H](O)CO [DG, 2-deoxyglucose] | does not cause induction of expression of G6pc mRNA | does not affect G6pc mRNA relative expression | causes elevation in the cell hexose 6-phosphate (H6P) content | H6P concentration increases with increasing 2DG | repression of Gck mRNA | decrease in Gck mRNA expression | – | – | – | – | – | – | – | – | – | – | – | –
CS(=O)(=O)c1ccc(C(CC2CCCC2)C(=O)Nc2nccs2)cc1 (stereo not drawn) [RO 28-1675, 3-cyclopentyl-2-(4-methanesulfonylphenyl)-N-thiazol-2-yl-propionamide] | – | – | – | – | – | – | induces the expression of both G6pc and Pklr mRNA; also recorded: increased relative expression of Pklr mRNA and G6pc mRNA at all glucose concentrations | increase in relative expression of both Pklr and G6pc mRNA | increase in F-2,6-P2; also recorded: increases F-2,6-P2 more than 5 mM glucose and 15 mM glucose | greater | increased the concentration of G6P more than glucose alone | increases the cell concentration of G6P at all glucose concentrations | increased phosphorylation more than glucose alone | increases the rate of phosphorylation of glucose | represses the relative expression of Gck; also recorded: able to reduce Gck expression; also recorded: reduced the relative expression of Gck mRNA at all glucose concentrations | decrease in relative expression of Gck mRNA; also recorded: decreased relative expression of Gck mRNA | induces the expression of both G6pc and Pklr mRNA; also recorded: increased relative expression of Pklr mRNA | increase in relative expression of both Pklr and G6pc mRNA; also recorded: increased relative expression of Pklr mRNA

From US20200188394A1, “TREATMENT OF LIVER DISEASE” (UNIVERSITY OF NEWCASTLE UPON TYNE, priority 2016, published 2020)
